# US20250296971A1, “GASTRIC INHIBITORY PEPTIDE RECEPTOR LIGANDS” (priority 2021, published 2025)
# *1 amine or outer side, *2 acyl side, *3 side chain or, on linkers, in order; H or OH if unused. Where a SMILES comes first, the peptide text is derived from it. Bridges are numbered along the chain shown (N, C = ends). [ ]: non-standard residue; d: D form. The star is where a group is joined. X14 = NC(=O)[C@H](CCCCNC(=O)CN1CCN2CCN3CCN(CC1)CC(=O)[O][In]([O]C(=O)C2)[O]C(=O)C3)NC(=O)CCC(=O)NCCCOCCOCCOCCCN*; X5 = NC(=O)[C@H](CCCCNC(=O)CN1CCN(CC(=O)O)CCN(CC(=O)O)CCN(CC(=O)O)CC1)NC(=O)CCC(=O)NCCCOCCOCCOCCCN*; X3 = O=C(O)CN1CCN(CC(=O)O)CCN(CC(=O)NCCCOCCOCCOCCCN*)CCN(CC(=O)O)CC1; DOTA = O=C(O)CN1CCN(CC(=O)O)CCN(CC(=O)*)CCN(CC(=O)O)CC1; Maleimide(3,4-diyl) = O=C1NC(=O)C([*:2])=C1[*:1]; Trp(5-Br) = N[C@@H](Cc1c[nH]c2ccc(Br)cc12)C(=O)O; Trp(5-Cl) = N[C@@H](Cc1c[nH]c2ccc(Cl)cc12)C(=O)O; Pyridine(2,6-diCH2) = c1cc(C[*:1])nc(C[*:2])c1; Trp(6-F) = N[C@@H](Cc1c[nH]c2cc(F)ccc12)C(=O)O; X22 = O=C([C@H](Cc1cccc(Cl)c1Cl)N[*:1])[*:2]; X24 = OC[C@H](CSCc1cccc(C[*:1])n1)N[*:2]; 1Nal = N[C@@H](Cc1cccc2ccccc12)C(=O)O; mXylylene = c1cc(C[*:1])cc(C[*:2])c1; X7 = c1cc(CSCCN[*:2])cc(C[*:1])c1; Hyp = O=C(O)[C@@H]1C[C@@H](O)CN1; Pen = CC(C)(S)[C@H](N)C(=O)O; Suc = O=C(CCC(=O)[*:2])[*:1]; Thp = NC1(C(=O)O)CCOCC1; Aib = CC(C)(N)C(=O)O; Sar = CNCC(=O)O
# Target: T1, GIPR (CHO-K1-hGIPR cells) (Homo sapiens, UniProt P48546)
# T1 construct: host or cells: CHO-K1
# T1 sequence (P48546 22-466): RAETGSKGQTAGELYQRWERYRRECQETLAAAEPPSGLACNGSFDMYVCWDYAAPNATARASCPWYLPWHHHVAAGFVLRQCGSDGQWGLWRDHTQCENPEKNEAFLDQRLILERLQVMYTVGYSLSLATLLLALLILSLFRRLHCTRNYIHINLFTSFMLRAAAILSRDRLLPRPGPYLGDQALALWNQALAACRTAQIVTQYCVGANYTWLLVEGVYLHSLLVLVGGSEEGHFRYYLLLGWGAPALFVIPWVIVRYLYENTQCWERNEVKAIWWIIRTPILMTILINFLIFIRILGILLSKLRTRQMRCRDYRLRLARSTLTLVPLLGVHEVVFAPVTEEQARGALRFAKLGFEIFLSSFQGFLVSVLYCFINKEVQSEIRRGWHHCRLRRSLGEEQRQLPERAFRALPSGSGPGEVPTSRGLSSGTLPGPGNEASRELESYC
# Assay: FACS binding assay
# Conditions: competition with 20 nM GIP-057, 4° C. for 1 hour, read-out: pIC50 Category (converted)
# Method in brief: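 CHO-K1 cells stably expressing human GIPR were detached with Accutase, suspended at 500.000 cells per mL in PBS with 1% FCS, and washed ice-cold. Bound peptide was detected with 1 μg/mL APC-streptavidin for 30 min on ice.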
row,SMILES,IC50
1,"CC[C@H](C)[C@@H]1NC(=O)[C@H](CC(C)C)NC(=O)C2(CCOCC2)NC(=O)[C@@H](NC(=O)[C@@H](CC(C)C)NC(=O)[C@H](CCC(=O)O)NC(=O)[C@@H]2C[C@@H](O)CN2C(=O)[C@H](Cc2c[nH]c3ccc(Cl)cc23)NC(=O)[C@H](Cc2c[nH]c3ccccc23)NC(=O)[C@H](CC(=O)O)NC(C)=O)CSC2=C(SC[C@@H](C(N)=O)NC1=O)C(=O)NC2=O [GIP-360, Ac-Asp-Trp-5Clw-Hyp-Glu-leu-[Cys(mli)-Thp-Leu-Ile-Cys]-NH2] (Ac-DW[Trp(5-Cl)][Hyp]E[dL]C[Thp]LIC-NH2; linker 7-11 via Maleimide(3,4-diyl))",< 10 nM
2,"CC[C@H](C)[C@@H]1NC(=O)[C@H](CC(C)C)NC(=O)C(C)(C)NC(=O)[C@@H](NC(=O)[C@H](CC(C)C)NC(=O)[C@H](CCC(=O)O)NC(=O)[C@@H]2CCCN2C(=O)[C@H](Cc2c[nH]c3ccccc23)NC(=O)[C@H](Cc2c[nH]c3ccccc23)NC(=O)[C@H](CC(=O)O)NC(C)=O)C(C)(C)SCc2cccc(c2)CSC[C@@H](C(N)=O)NC1=O [GIP-338, Ac-Asp-Trp-Trp-Pro-Glu-Leu-[Pen(3MeBn)-Aib-Leu-Ile-Cys]-NH2] (Ac-DWWPEL[Pen][Aib]LIC-NH2; linker 7-11 via mXylylene)",> 1000 nM
3,"CC[C@H](C)[C@@H]1NC(=O)[C@H](CC(C)C)NC(=O)C(C)(C)NC(=O)[C@@H](NC(=O)[C@H](CC(C)C)NC(=O)[C@H](CCC(=O)O)NC(=O)[C@@H]2C[C@@H](O)CN2C(=O)[C@H](Cc2c[nH]c3ccccc23)NC(=O)[C@H](Cc2c[nH]c3ccccc23)NC(=O)CCC(=O)O)CSCc2cccc(c2)CSC[C@@H](C(N)=O)NC1=O [GIP-319, HO-Succinyl-Trp-Trp-Hyp-Glu-Leu-[Cys(3MeBn)-Aib-Leu-Ile-Cys]-NH2] (Suc-WW[Hyp]ELC[Aib]LIC-NH2; linker 6-10 via mXylylene)",100 to 794 nM
4,CC[C@H](C)[C@@H]1NC(=O)[C@@H](CC(C)C)NC(=O)[C@H](C)NC(=O)[C@@H](NC(=O)[C@H](CC(C)C)NC(=O)[C@H](CCC(=O)O)NC(=O)[C@@H]2CCCN2C(=O)[C@H](Cc2c[nH]c3ccccc23)NC(=O)[C@H](Cc2c[nH]c3ccccc23)NC(=O)[C@H](CC(=O)O)NC(=O)[C@H](Cc2ccc(O)cc2)NC(=O)[C@@H](N)CCSC)CSCc2cccc(c2)CSC[C@@H](C(N)=O)NC1=O [GIP-330] (H-MYDWWPELCA[dL]IC-NH2; linker 9-13 via mXylylene),> 1000 nM
5,"CC[C@H](C)[C@@H]1NC(=O)[C@H](CC(C)C)NC(=O)[C@H](C)NC(=O)[C@@H](NC(=O)[C@H](CC(C)C)NC(=O)[C@H](CCC(=O)O)NC(C)=O)CSCc2cccc(c2)CSC[C@@H](C(N)=O)NC1=O [GIP-327, Ac-Glu-Leu-[Cys(3MeBn)-Ala-Leu-Ile-Cys]-NH2] (Ac-ELCALIC-NH2; linker 3-7 via mXylylene)",> 1000 nM

# The remaining lines, values ahead:
row,IC50,SMILES
1,10 to 79.4 nM,"CC(=O)N[C@@H](CC(=O)O)C(=O)N[C@@H](Cc1c[nH]c2ccccc12)C(=O)N[C@@H](Cc1c[nH]c2ccc(Cl)cc12)C(=O)N1C[C@H](O)C[C@H]1C(=O)N[C@@H](CCC(=O)O)C(=O)N[C@H](CC(C)C)C(=O)N[C@H]1CSCc2cccc(n2)CSC[C@@H](C(=O)N[C@H](CCCCNC(=O)CN2CCN(CC(=O)O)CCN(CC(=O)O)CCN(CC(=O)O)CC2)C(N)=O)NC(=O)[C@H](Cc2ccccc2)NC(=O)[C@H](CC(C)C)NC(=O)C2(CCOCC2)NC1=O [GIP-389, Ac-Asp-Trp-5Clw-Hyp-Glu-leu-[Cys(2Lut)-Thp-Leu-Phe-Cys]-lys (DOTA)-NH2] (Ac-DW[Trp(5-Cl)][Hyp]E[dL]C[Thp]LFC[dK](DOTA)-NH2; linker 7-11 via Pyridine(2,6-diCH2))"
2,100 to 794 nM,"CC[C@H](C)[C@@H]1NC(=O)[C@H](CC(C)C)NC(=O)C(C)(C)NC(=O)[C@@H](NC(=O)[C@H](CC(C)C)NC(=O)[C@H](CCC(=O)O)NC(=O)[C@@H]2CCCN2C(=O)[C@H](Cc2c[nH]c3ccccc23)NC(=O)[C@H](Cc2c[nH]c3ccc(Cl)cc23)NC(=O)[C@H](CC(=O)O)NC(C)=O)CSCc2cccc(c2)CSC[C@@H](C(=O)NCCCOCCOCCOCCCNC(=O)CCC(=O)N[C@@H](CCCCNC(=O)CN2CCN(CC(=O)O)CCN(CC(=O)O)CCN(CC(=O)O)CC2)C(N)=O)NC1=O [GIP-277, Ac-Asp-5Clw-Trp-Pro-Glu-Leu-[Cys(3MeBn)-Aib-Leu-Ile-Cys]-Ttds-Lys(DOTA)-NH2] (Ac-D[Trp(5-Cl)]WPELC[Aib]LIC-X5; linker 7-11 via mXylylene)"

# Same assay, conditions: competition with 20 nM GIP-057, 4° C., 1 hour, read-out: pIC50 Category (converted)
row,SMILES,IC50
1,"CC[C@H](C)[C@@H]1NC(=O)[C@H](CC(C)C)NC(=O)C(C)(C)NC(=O)[C@@H](NC(=O)[C@@H](CC(C)C)NC(=O)[C@H](CCC(=O)O)NC(=O)CN(C)C(=O)[C@H](Cc2c[nH]c3ccc(Cl)cc23)NC(=O)[C@H](Cc2c[nH]c3ccccc23)NC(=O)[C@H](CC(=O)O)NC(=O)CCC(=O)NCCCOCCOCCOCCCNC(=O)CN2CCN(CC(=O)O)CCN(CC(=O)O)CCN(CC(=O)O)CC2)CSCc2cccc(c2)CSCCNC1=O [GIP-100, DOTA-Ttds-Asp-Trp-5Clw-Nmg-Glu-leu-[Cys(3MeBn)-Aib-Leu-Ile-AET]] ({X3-Suc}-DW[Trp(5-Cl)][Sar]E[dL]C[Aib]LI; linker 7-C via X7)",< 10 nM
2,"CC[C@H](C)[C@@H]1NC(=O)[C@H](CC(C)C)NC(=O)C(C)(C)NC(=O)[C@@H](NC(=O)[C@@H](CC(C)C)NC(=O)[C@H](CCC(=O)O)NC(=O)[C@@H]2CCCN2C(=O)[C@H](Cc2c[nH]c3ccc(Br)cc23)NC(=O)[C@H](Cc2c[nH]c3cc(F)ccc23)NC(=O)[C@H](CC(=O)O)NC(=O)CCC(=O)NCCCOCCOCCOCCCNC(=O)CN2CCN(CC(=O)O)CCN(CC(=O)O)CCN(CC(=O)O)CC2)CSCc2cccc(c2)CSCCNC1=O [GIP-105, DOTA-Ttds-Asp-6Fw-5Brw-Pro-Glu-leu-[Cys(3MeBn)-Aib-Leu-Ile-AET]] ({X3-Suc}-D[Trp(6-F)][Trp(5-Br)]PE[dL]C[Aib]LI; linker 7-C via X7)",< 10 nM
3,"CC[C@H](C)[C@@H]1NC(=O)[C@H](CC(C)C)NC(=O)C2(CCOCC2)NC(=O)[C@@H](NC(=O)[C@@H](CC(C)C)NC(=O)[C@H](CCC(=O)O)NC(=O)[C@@H]2C[C@@H](O)CN2C(=O)[C@H](Cc2c[nH]c3ccc(Cl)cc23)NC(=O)[C@H](Cc2cccc(Cl)c2Cl)NC(=O)[C@H](CC(=O)O)NC(C)=O)CSCc2cccc(n2)CSC[C@@H](C(N)=O)NC1=O [GIP-226, Ac-Asp-Egp-5Clw-Hyp-Glu-leu-[Cys(2Lut)-Thp-Leu-Ile-Cys]-NH2] (Ac-D[X22][Trp(5-Cl)][Hyp]E[dL]C[Thp]LIC-NH2; linker 7-11 via Pyridine(2,6-diCH2))",< 10 nM
4,"CC[C@H](C)[C@@H]1NC(=O)[C@H](CC(C)C)NC(=O)C(C)(C)NC(=O)[C@@H](NC(=O)[C@@H](CC(C)C)NC(=O)[C@H](CCC(=O)O)NC(=O)[C@@H]2CCCN2C(=O)[C@H](Cc2cccc3ccccc23)NC(=O)[C@H](Cc2c[nH]c3ccccc23)NC(=O)[C@H](CC(=O)O)NC(C)=O)CSCc2cccc(c2)CSC[C@@H](C(=O)NCCCOCCOCCOCCCNC(=O)CCC(=O)N[C@@H](CCCCNC(=O)CN2CCN3CCN4CCN(CC2)CC(=O)[O][In]([O]C(=O)C3)[O]C(=O)C4)C(N)=O)NC1=O [GIP-165, Ac-Asp-Trp-1Ni-Pro-Glu-leu-[Cys(3MeBn)-Aib-Leu-Ile-Cys]-Ttds-Lys(InDOTA)-NH2] (Ac-DW[1Nal]PE[dL]C[Aib]LIC-X14; linker 7-11 via mXylylene)",< 10 nM

# Continued, values first:
row,IC50,SMILES
1,< 10 nM,"CC[C@H](C)[C@@H]1NC(=O)[C@H](CC(C)C)NC(=O)C2(CCOCC2)NC(=O)[C@@H](NC(=O)[C@H](CC(C)C)NC(=O)[C@@H](CCC(=O)O)NC(=O)[C@@H]2C[C@@H](O)CN2C(=O)[C@H](Cc2c[nH]c3ccc(Cl)cc23)NC(=O)[C@H](Cc2c[nH]c3ccccc23)NC(=O)[C@H](CC(=O)O)NC(C)=O)CSCc2cccc(n2)CSC[C@@H](C(N)=O)NC1=O [GIP-223, Ac-Asp-Trp-5Clw-Eaz-Glu-leu-[Cys(2Lut)-Thp-Leu-Ile-Cys]-NH2] (Ac-DW[Trp(5-Cl)][Hyp][dE]LC[Thp]LIC-NH2; linker 7-11 via Pyridine(2,6-diCH2))"
2,< 10 nM,"CC[C@H](C)[C@@H]1NC(=O)[C@H](CC(C)C)NC(=O)C2(CCOCC2)NC(=O)[C@@H](NC(=O)[C@@H](CC(C)C)NC(=O)[C@H](CCC(=O)O)NC(=O)[C@@H]2C[C@@H](O)CN2C(=O)[C@H](Cc2c[nH]c3ccc(Cl)cc23)NC(=O)[C@H](Cc2c[nH]c3ccccc23)NC(=O)[C@H](CC(=O)O)NC(C)=O)CSCc2cccc(n2)CSC[C@@H](CO)NC1=O [GIP-182, Ac-Asp-Trp-5Clw-Hyp-Glu-leu-[Cys(2Lut)-Thp-Leu-Ile-Cysol]-OH] (Ac-DW[Trp(5-Cl)][Hyp]E[dL]C[Thp]LI; linker 7-C via X24)"
3,< 10 nM,"CC[C@H](C)[C@@H]1NC(=O)[C@H](CC(C)C)NC(=O)C(C)(C)NC(=O)[C@@H](NC(=O)[C@@H](CC(C)C)NC(=O)[C@H](CCC(=O)O)NC(=O)[C@@H]2CCCN2C(=O)[C@H](Cc2c[nH]c3ccc(Cl)cc23)NC(=O)[C@H](Cc2c[nH]c3cc(F)ccc23)NC(=O)[C@H](CC(=O)O)NC(=O)CCC(=O)NCCCOCCOCCOCCCNC(=O)CN2CCN(CC(=O)O)CCN(CC(=O)O)CCN(CC(=O)O)CC2)CSCc2cccc(c2)CSCCNC1=O [GIP-104, DOTA-Ttds-Asp-6Fw-5Clw-Pro-Glu-leu-[Cys(3MeBn)-Aib-Leu-Ile-AET]] ({X3-Suc}-D[Trp(6-F)][Trp(5-Cl)]PE[dL]C[Aib]LI; linker 7-C via X7)"
